The results in this text go back to patent US20160009686A1, “VEGFR3 INHIBITORS” (CANCER THERAPEUTICS CRC PTY LIMITED, priority 2012, published 2016).

The target in this test is VEGFR3 cytoplasmic domain (Homo sapiens, UniProt P35916). In words: VEGFR3 Biochemical Assay (AlphaScreen). Conditions: GST-fusion enzyme, 500 μM ATP, 90 minutes at 30 degree Celsius (modified form in some cases: Hexa-His-fusion enzyme, 1 μM ATP). A general note: Alpha assays give light when donor and acceptor beads are brought close together.

Read-outs that look alike come from different tables or passages of the source.

Sequence of VEGFR3 cytoplasmic domain (P35916 798-1298 isoform P35916-1): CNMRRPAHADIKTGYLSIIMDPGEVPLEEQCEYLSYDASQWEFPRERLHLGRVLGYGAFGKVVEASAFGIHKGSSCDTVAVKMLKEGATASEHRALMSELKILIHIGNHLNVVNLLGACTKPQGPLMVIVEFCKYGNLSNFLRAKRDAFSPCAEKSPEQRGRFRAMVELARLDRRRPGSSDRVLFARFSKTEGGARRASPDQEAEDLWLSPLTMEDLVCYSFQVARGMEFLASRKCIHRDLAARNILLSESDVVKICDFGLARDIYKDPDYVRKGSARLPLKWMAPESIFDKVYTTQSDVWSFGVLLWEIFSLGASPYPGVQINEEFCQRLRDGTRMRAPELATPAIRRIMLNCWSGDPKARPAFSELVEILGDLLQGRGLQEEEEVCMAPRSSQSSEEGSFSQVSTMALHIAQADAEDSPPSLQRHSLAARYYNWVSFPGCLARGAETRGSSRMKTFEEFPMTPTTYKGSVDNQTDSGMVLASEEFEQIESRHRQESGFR

The IC50 is the concentration that inhibits the measured activity by half. With `Cc1nn(C)cc1Nc1ncc(Cl)c(CCc2ccccc2C2(C(N)=O)CC2)n1` [Compound 26, 1-(2-(2-(5-Chloro-2-((1,3-dimethyl-1H-pyrazol-4-yl)amino)pyrimidin-4-yl)ethyl)phenyl)cyclopropanecarboxamide], under “read-out: IC50”, the IC50 was found to be 12 nM.
Still for that read-out and setting: then `CC(C(N)=O)c1ccccc1CCc1nc(Nc2cn[nH]c2)ncc1C(F)(F)F` (centres unmarked) [Compound 54, 2-(2-(2-(2-((1H-Pyrazol-4-yl)amino)-5-(trifluoromethyl)pyrimidin-4-yl)ethyl)phenyl)propanamide], with 17 nM.
On the same count and under the same terms, then `N#Cc1ccc(Nc2ncc(Cl)c(CCc3ccccc3C3(C(N)=O)CC3)n2)cn1` [Compound 31, 1-(2-(2-(5-Chloro-2-((6-cyanopyridin-3-yl)amino)pyrimidin-4-yl)ethyl)phenyl)cyclopropanecarboxamide], with 48 nM; and `CC(=O)c1ccc(Nc2ncc(Cl)c(CCc3ccccc3C3(C(N)=O)CC3)n2)cn1` [Compound 32, 1-(2-(2-(2-((6-Acetylpyridin-3-yl)amino)-5-chloropyrimidin-4-yl)ethyl)phenyl)cyclopropanecarboxamide], with 44 nM; and `CC(C(N)=O)c1ccccc1CCc1nc(Nc2ccc(C3CCNCC3)nc2)ncc1Cl` (centres unmarked) [Compound 37, 2-(2-(2-(5-Chloro-2-((6-(piperidin-4-yl)pyridin-3-yl)amino)pyrimidin-4-yl)ethyl)phenyl)propanamide], with 31 nM.
For the compound `CC(C(N)=O)c1ccccc1CCc1nc(Nc2ccc(C3CCN(C)CC3)nc2)ncc1Cl` (centres unmarked) [Compound 38, 2-(2-(2-(5-Chloro-2-((6-(1-methylpiperidin-4-yl)pyridin-3-yl)amino)pyrimidin-4-yl)ethyl)phenyl)propanamide], the IC50 (read-out: IC50) is 32 nM.
Turning to `Cc1cnc(Nc2cnn(C)c2)nc1CCc1ccccc1C(C)C(N)=O` (single isomer, unassigned) [Compound 51-2A, 2-(2-(2-(5-methyl-2-((1-methyl-1H-pyrazol-4-yl)amino)pyrimidin-4-yl)ethyl)phenyl)propanamide], under “read-out: IC50”, the IC50 was found to be 41 nM.
On to `CC(C(N)=O)c1ccccc1CCc1nc(Nc2ccc(C3CCNCC3)nc2)ncc1C(F)(F)F` (centres unmarked) [Compound 62, 2-(2-(2-(2-((6-(Piperidin-4-yl)pyridin-3-yl)amino)-5-(trifluoromethyl)pyrimidin-4-yl)ethyl)phenyl)propanamide], for which, under “read-out: IC50”, the IC50 was found to be 492 nM.
Still for that read-out and setting: then `Cc1cnc(Nc2cn[nH]c2)nc1CCc1ccccc1C1(C(N)=O)CC1` [Compound 46, 1-(2-(2-(2-((1H-Pyrazol-4-yl)amino)-5-methylpyrimidin-4-yl)ethyl)phenyl)cyclopropanecarboxamide], with 13 nM.
Same read-out and setting: for `Cc1cc(Nc2ncc(Cl)c(CCc3ccccc3C3(C(N)=O)CC3)n2)n[nH]1` [Compound 27, 1-(2-(2-(5-Chloro-2-((5-methyl-1H-pyrazol-3-yl)amino)pyrimidin-4-yl)ethyl)phenyl)cyclopropanecarboxamide] the value was 47 nM.
As for `NC(=O)C1(c2ccccc2CCc2nc(Nc3ccccc3)ncc2Cl)CC1` [Compound 23, 1-(2-(2-(5-Chloro-2-(phenylamino)pyrimidin-4-yl)ethyl)phenyl)cyclopropanecarboxamide], for the setting “IC50 (nM)”, the IC50 amounted to 11 nM.
Consider `CC(N)c1ccc(Nc2ncc(C(F)(F)F)c(CCc3ccccc3C3(C(N)=O)CC3)n2)cc1` (centres unmarked) [Compound 70A, 1-(2-(2-(2-(4-(1-Aminoethyl)phenylamino)-5-(trifluoromethyl)pyrimidin-4-yl)ethyl)phenyl)cyclopropanecarboxamide], for which, where the note is “read-out: IC50”, the IC50 was 22 nM.
The same measure, in the same setting: then `NC(=O)C1(c2ccccc2CCc2nc(Nc3cnn(C(F)F)c3)ncc2Cl)CC1` [Compound 34, 1-(2-(2-(5-Chloro-2-((1-(difluoromethyl)-1H-pyrazol-4-yl)amino)pyrimidin-4-yl)ethyl)phenyl)cyclopropanecarboxamide], with 7 nM.
Same read-out and setting: then `Cc1cnc(Nc2cnn(C)c2)nc1CCc1ccccc1C1(C(N)=O)CC1` [Compound 47, 1-(2-(2-(5-Methyl-2-((1-methyl-1H-pyrazol-4-yl)amino)pyrimidin-4-yl)ethyl)phenyl)cyclopropanecarboxamide], with 5 nM; and `COc1ccc(Nc2ncc(C(F)(F)F)c(CCc3ccccc3C(C)C(N)=O)n2)cn1` (centres unmarked) [Compound 61, 2-(2-(2-(2-((6-Methoxypyridin-3-yl)amino)-5-(trifluoromethyl)pyrimidin-4-yl)ethyl)phenyl) propanamide], with 118 nM; and `Cn1ccc(Nc2ncc(Cl)c(CCc3ccccc3C3(C(N)=O)CC3)n2)n1` [Compound 28, 1-(2-(2-(5-Chloro-2-((1-methyl-1H-pyrazol-3-yl)amino)pyrimidin-4-yl)ethyl)phenyl)cyclopropanecarboxamide], with 268 nM.
Same read-out and setting: then `COCCn1cc(Nc2ncc(Cl)c(CCc3ccccc3C3(C(N)=O)CC3)n2)cn1` [Compound 77], with 3 nM; and `CN1CCC(n2cc(Nc3ncc(C(F)(F)F)c(CCc4ccccc4C4(C(N)=O)CC4)n3)cn2)CC1` [Compound 67, 1-(2-(2-(2-((1-(1-Methylpiperidin-4-yl)-1H-pyrazol-4-yl)amino)-5-(trifluoromethyl)pyrimidin-4-yl)ethyl)phenyl)cyclopropanecarboxamide], with 7 nM; and `CC(C(N)=O)c1ccccc1CCc1nc(Nc2cnn(C3CCNCC3)c2)ncc1Cl` (centres unmarked) [Compound 43, 2-(2-(2-(5-Chloro-2-(1-(piperidin-4-yl)-1H-pyrazol-4-ylamino)pyrimidin-4-yl)ethyl)phenyl) propanamide], with 12 nM.
On to `CC(=O)NC(C)c1ccc(Nc2ncc(C(F)(F)F)c(CCc3ccccc3C3(C(N)=O)CC3)n2)cc1` (centres unmarked) [Compound 71, 1-(2-(2-(2-(4-(1-Acetamidoethyl)phenylamino)-5-(trifluoromethyl)pyrimidin-4-yl)ethyl)phenyl)cyclopropanecarboxamide], for which the IC50 (read-out: IC50) was found to be 10 nM.
Turning to `NC(=O)C1(c2ccccc2CCc2nc(Nc3cnn(CCO)c3)ncc2Cl)CC1` [Compound 76], where the note is “read-out: IC50”, the IC50 was found to be 4 nM.
Still for that read-out and setting: then `CC(N)c1ccc(Nc2ncc(Cl)c(CCc3ccccc3C3(C(N)=O)CC3)n2)cn1` (centres unmarked) [Compound 33, 1-(2-(2-(2-((6-(1-Aminoethyl)pyridin-3-yl)amino)-5-chloropyrimidin-4-yl)ethyl)phenyl)cyclopropanecarboxamide], with 60 nM; and `Cc1cnc(Nc2ccc(C(C)N)cc2)nc1CCc1ccccc1C1(C(N)=O)CC1` (centres unmarked) [Compound 50, 1-(2-(2-(2-((4-(1-Aminoethyl)phenyl)amino)-5-methylpyrimidin-4-yl)ethyl)phenyl)cyclopropanecarboxamide], with 46 nM.
Still for that read-out and setting: for `Cc1n[nH]cc1Nc1ncc(Cl)c(CCc2ccccc2C2(C(N)=O)CC2)n1` [Compound 25, 1-(2-(2-(5-Chloro-2-((3-methyl-1H-pyrazol-4-yl)amino)pyrimidin-4-yl)ethyl)phenyl)cyclopropanecarboxamide] the value was 7 nM.
On the same count and under the same terms, for `NC(=O)C1(c2ccccc2CCc2nc(Nc3cnn(C4CCNCC4)c3)ncc2C(F)(F)F)CC1` [Compound 66, 1-(2-(2-(2-((1-(Piperidin-4-yl)-1H-pyrazol-4-yl)amino)-5-(trifluoromethyl)pyrimidin-4-yl)ethyl)phenyl)cyclopropanecarboxamide] the value was 7 nM.
Consider `CC(C(N)=O)c1ccccc1CCc1nc(Nc2cccnc2)ncc1Cl` (centres unmarked) [Compound 39, 2-(2-(2-(5-Chloro-2-(pyridin-3-ylamino)pyrimidin-4-yl)ethyl)phenyl) propanamide], for which the IC50 (read-out: IC50) amounted to 44 nM.
Still for that read-out and setting: for `CC(C(N)=O)c1ccccc1CCc1nc(Nc2ccc(C3CCN(C)CC3)nc2)ncc1C(F)(F)F` (centres unmarked) [Compound 63, 2-(2-(2-(2-((6-(1-Methylpiperidin-4-yl)pyridin-3-yl)amino)-5-(trifluoromethyl)pyrimidin-4-yl)ethyl)phenyl)propanamide] the value was 28 nM.
With `Cn1cc(Nc2ncc(C(F)(F)F)c(CCc3ccccc3C3(C(N)=O)CC3)n2)cn1` [Compound 65, 1-(2-(2-(2-((1-Methyl-1H-pyrazol-4-yl)amino)-5-(trifluoromethyl)pyrimidin-4-yl)ethyl)phenyl)cyclopropanecarboxamide], the 50% inhibitory concentration (IC50) (read-out: IC50) was 3 nM.
Still for that read-out and setting: for `CC(C(N)=O)c1ccccc1CCc1nc(Nc2cncnc2)ncc1Cl` (centres unmarked) [Compound 40, 2-(2-(2-(5-Chloro-2-(pyrimidin-5-ylamino)pyrimidin-4-yl)ethyl)phenyl) propanamide] the value was 160 nM; for `NC(=O)C1(c2ccccc2CCc2nc(Nc3ccnnc3)ncc2Cl)CC1` [Compound 22, 1-(2-(2-(5-Chloro-2-(pyridazin-4-ylamino)pyrimidin-4-yl)ethyl)phenyl)cyclopropanecarboxamide], 20 nM.
In the case of `NC(=O)C1(c2ccccc2CCc2nc(Nc3ccc(C4CCNCC4)cc3)ncc2C(F)(F)F)CCC1` [Compound 52, 1-(2-(2-(2-((4-(Piperidin-4-yl)phenyl)amino)-5-(trifluoromethyl)pyrimidin-4-yl)ethyl)phenyl)cyclobutanecarboxamide], the IC50 (read-out: IC50) was found to be 23 nM.
Same read-out and setting: then `Cc1cnc(Nc2cnn(C)c2)nc1CCc1ccccc1C(C)C(N)=O` (single isomer, unassigned) [Compound 51-1A, 2-(2-(2-(5-methyl-2-((1-methyl-1H-pyrazol-4-yl)amino)pyrimidin-4-yl)ethyl)phenyl)propanamide], with 25 nM; and `Cc1cnc(Nc2cnn(C3CCN(C)CC3)c2)nc1CCc1ccccc1C1(C(N)=O)CC1` [Compound 48, 1-(2-(2-(5-Methyl-2-((1-(1-methylpiperidin-4-yl)-1H-pyrazol-4-yl)amino)pyrimidin-4-yl)ethyl)phenyl)cyclopropanecarboxamide], with 12 nM.
On the same count and under the same terms, then `NC(=O)C1(c2ccccc2CCc2nc(Nc3ncco3)ncc2Cl)CC1` [Compound 11, 1-(2-(2-(5-Chloro-2-(oxazol-2-ylamino)pyrimidin-4-yl)ethyl)phenyl)cyclopropanecarboxamide], with 1300 nM; and `Cc1ccc(Nc2ncc(Cl)c(CCc3ccccc3C(C)C(N)=O)n2)cn1` (centres unmarked) [Compound 41, 2-(2-(2-(5-chloro-2-(6-methylpyridin-3-ylamino)pyrimidin-4-yl)ethyl)phenyl) propanamide], with 45 nM.
